The values that follow come from patent US10377746B2, “Indolin-2-one derivatives” (Hoffmann-La Roche Inc., priority 2015, dated 2019).

Structures are written as SMILES.

Test [1] has as its system L-687,414-induced hyperlocomotion. The test is described as follows: L-687,414-induced hyperlocomotion. The format is in vivo, mouse. The note with it: mice; 30 mg/kg ip, 15 min before 50 mg/kg s.c. L-687,414. The protocol:
The described compounds of formula I reduce L-687,414-induced hyperlocomotion. This was assessed by using a computerized Digiscan 16 Animal Activity Monitoring System (Omnitech Electronics, Columbus, Ohio) to quantify locomotor activity. Animals were kept under a 12 h light/dark cycle and experiments were performed during the light period. Each activity monitoring chamber consisted of a Plexiglas box (41×41×28 cm; W×L×H) with sawdust bedding on the floor surrounded by invisible horizontal and vertical infrared sensor beams. The test boxes were divided by a Plexiglas cross providing each mouse with 20×20 cm of moving space. Cages were connected to a Digiscan Analyzer linked to a computer that constantly collected the beam status information. Records of photocell beam interruptions for individual animals were taken every 5 min over the duration of the experimental session and the sum of the first 6 periods was used as the final parameter. At least 8 mice were used in each treatment group. Compounds were administered i.p. 15 min before a s.c. injection of 50 mg/kg of L-687,414. Mice were then transferred from their home cage to the recording chambers for a 15-min habituation phase allowing free exploration of the new environment. Horizontal activity was then recorded for a 30-min time period. The % inhibition of L-687,414-induced hyperlocomotion was calculated according to the equation: ((Veh+L-687,414horizontal activity−drug+L-687,414horizontal activity)/Veh+L-687,414horizontal activity)×100
ID50 values, defined as doses of each compound producing 50% inhibition of L-687,414-induced hyperlocomotion, were calculated by linear regression analysis of a dose-response data using an Excel-based computer-fitting program.
As data was not presupposed to be normally distributed, groups treated with test compounds were statistically compared with the control (vehicle-treated) group using one-tailed Mann Whitney U tests. […]

In the next test the target is mouse ENT-1 transporter (Mus musculus (Mouse), UniProt Q9JIM1). Put plainly: Determination of adenosine transport activity (ENT1, [3H]-adenosine uptake). The format is cell-based. The settings on record: stable cells expressing mouse ENT-1; [2,8-3H]-adenosine 6 nM, 20 min. As for the experimental part:
To measure adenosine transport activity of ENT-1 mammalian cells, stable cells expressing the mouse ENT-1 transporter were plated on day 1 in 96-well culture plates at the density of 60,000 cells/well, in complete DMEM/F12 medium supplemented with glutamax, 10% FBS and 10 μg/ml puromycin. On day 2, the medium was aspirated and the cells were washed twice with uptake buffer (10 mM Hepes-Tris, pH 7.4 containing 150 mM NaCl, 1 mM
CaCl2, 2.5 mM KCl, 2.5 mM MgSO4, 10 mM D-glucose) (UB). For inhibition experiments, cells were then incubated at RT with various concentrations of compounds with 1% DMSO final. Non-specific uptake was defined in the presence of 10 μM S-(4-Nitrobenzyl)-6-thioinosine (NBTI, Sigma Cat #N2255).
A solution containing [2,8-^3H]-adenosine 6 nM (40 Ci/mmol, American Radiolabeled chemicals Inc, Cat #ART 0287A) was then immediately added to the wells. The plates were then incubated for 20 min with gentle shaking and the reaction was stopped by aspiration of the mixture and washing (three times) with ice-cold UB. The cells were lysed by the addition of scintillation liquid, shaken 3 hours and the radioactivity in the cells was estimated using a microplates scintillation counter (TopCount NXT, Packard).

The test system of test [2] is behavioral signature of compound-treated mice. Put plainly: SmartCube behavioral signature similarity analysis. In kind it is in vivo, mouse. From the text: In addition to the reversal of L-687,414 induced hyperlocomotion experiment as described above, some compounds of the present invention have been tested in SmartCube®, an automated system in which the behaviors of compound-treated mice in response to multiple challenges are captured by digital video and analyzed with computer algorithms (Roberds et al., Frontiers in Neuroscience, 2011, Vol. 5, Art. 103, 1-4; Vadim Alexandrov, Dani Brunner, Taleen Hanania, Emer Leahy Eur. J. Pharmacol. 2015, 750, 82-99). In this way, the neuro-pharmacological effects of a test compound can be predicted by similarity to major classes of compounds, such as antipsychotics, anxiolytics and antidepressants.
SmartCube® was used to compare the behavioral signature of a test compound to a database of behavioral signatures obtained from a large set of clinically approved reference drugs, grouped per indications. In this way, the neuro-pharmacological effects of a test compound can be predicted by similarity to major classes of compounds, such as antipsychotics, anxiolytics and antidepressants. This approach is ideally suited to screen collections of existing drugs or drug candidates with previously unknown neuropharmacology, which could expedite the development of new and unexpected treatments for psychiatric disorders.
Some compounds of the present invention were injected i.p. at different doses 15 minutes before the test. At least 8 mice were used in each treatment group. Digital videos of the subjects were processed with computer vision algorithms to extract over 2000 dependent measures including frequency and duration of many different behavioral states. The results of the classifications are presented as bar charts for each compound and dose (mg/kg), the Y-axis indicates the relative probability that the test compound will show efficacy in the specific CNS indication.
Compounds of the present invention show similar signatures to those of atypical antipsychotics. An independent analysis was performed on the unclassified data to determine the similarity of the example compounds to active doses of known atypical antipsychotics. For this analysis, we use discrimination rate as the measure of separability between the two drugs, i.e. one drug's “distinguishability” from another. A rate equal to 50% (or 0.5) corresponds to zero distinguishability. […] In most cases, the example compounds show a similarity to risperidone, clozapine and olanzapine with a discrimination rate of ≤0.70.

The mark [3] stands for this setting: test compound 5 mg/kg i.p., rate <=0.70 = similar.

In general, IC50 refers to the concentration needed to halve the response being measured.

Sequence of mouse ENT-1 transporter (Q9JIM1 whole entry): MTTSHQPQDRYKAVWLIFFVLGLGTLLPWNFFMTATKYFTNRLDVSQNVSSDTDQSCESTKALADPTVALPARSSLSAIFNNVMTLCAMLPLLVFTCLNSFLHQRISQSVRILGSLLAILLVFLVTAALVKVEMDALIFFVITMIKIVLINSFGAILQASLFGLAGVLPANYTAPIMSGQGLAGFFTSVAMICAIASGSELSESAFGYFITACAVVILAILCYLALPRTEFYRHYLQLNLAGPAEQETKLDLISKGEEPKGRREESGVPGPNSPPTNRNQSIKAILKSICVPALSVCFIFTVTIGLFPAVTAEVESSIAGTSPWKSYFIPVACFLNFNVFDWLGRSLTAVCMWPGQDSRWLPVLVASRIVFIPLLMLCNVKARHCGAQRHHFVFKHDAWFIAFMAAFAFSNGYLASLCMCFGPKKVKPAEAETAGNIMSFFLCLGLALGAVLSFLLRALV

With `Cc1ncc(-c2ccc3c(c2)N(c2ccc(S(C)(=O)=O)cn2)C(=O)C3(C)C)cn1` [Example 19, 3,3-Dimethyl-6-(2-methylpyrimidin-5-yl)-1-(5-(methylsulfonyl)pyridin-2-yl)indolin-2-one], the “Inhibition, ip of L-687,414-induced hyperlocomotion” value in test [1] is 93.5%. The molecule also yielded an IC50 at mouse ENT-1 transporter of 157 nM. For the same molecule, in test [2] (i.p., in words), the “SmartCube similarity to major classes of compounds” value is “similarity to atypical antipsychotics”. Moreover, in test [2] (setting [3]), the “discrimination rate vs Clozapine (1.0 mg/kg)” value is 0.54, the “discrimination rate vs Olanzapine (0.25 mg/kg)” value was 0.52 and the “discrimination rate vs Risperidone (0.06 mg/kg)” value came out at 0.50.
